Data published in paper PMC4303209, “A novel phosphatidylinositol 3-kinase (PI3K) inhibitor directs a potent FOXO-dependent, p53-independent cell cycle arrest phenotype characterized by the differential induction of a subset of FOXO-regulated genes” (Breast Cancer Research : BCR, 2014).

System: MCF-7 breast cancer cells
Assay: Microarray gene expression analysis (Agilent whole human genome 4 x 44K; compound vs DMSO, LIMMA log2 fold change)
Assay type: cell-based
Conditions: Apoptosis genes

Structure (SMILES): Oc1cccc(-c2nc(N3CCOCC3)c3oc4ncccc4c3n2)c1 [PI-103]
- ITGB3BP log2FC (Gene 23421): 0.693
- RYBP log2FC (Gene 23429): 0.361
- HEY2 log2FC (Gene 23493): -0.116
- SCRIB log2FC (Gene 23513): 0.029
- CLCF1 log2FC (Gene 23529): -0.682
- PRAME log2FC (Gene 23532): -0.450
- DDAH2 log2FC (Gene 23564): 0.378
- ZNF346 log2FC (Gene 23567): -0.012
- CASP14 log2FC (Gene 23581): -0.041
- NUP62 log2FC (Gene 23636): -0.627
- PPP1R15A log2FC (Gene 23645): 0.513
- AIPL1 log2FC (Gene 23746): 0.177
- FKBP8 log2FC (Gene 23770): 0.044
- BCL2L13 log2FC (Gene 23786): 0.110
- MTCH1 log2FC (Gene 23787): 0.149
- NGEF log2FC (Gene 25791): 0.857
- SPDEF log2FC (Gene 25803): -0.186
- TNFAIP8 log2FC (Gene 25816): 0.677
- PRDX5 log2FC (Gene 25824): 0.047
- BRMS1 log2FC (Gene 25855): -0.476
- SIN3A log2FC (Gene 25942): 0.891
- HIGD1A log2FC (Gene 25994): -0.106
- SERBP1 log2FC (Gene 26135): 0.167
- NOC2L log2FC (Gene 26155): -0.855
- TIAM2 log2FC (Gene 26230): 0.365
- AATF log2FC (Gene 26574): -0.415
- GREM1 log2FC (Gene 26585): -0.405
- CKAP2 log2FC (Gene 26586): 0.629
- CYFIP2 log2FC (Gene 26999): 0.053
- NGFRAP1 log2FC (Gene 27018): 0.277
- ANKRD1 log2FC (Gene 27063): 0.350
- GHITM log2FC (Gene 27069): 0.386
- BBC3 log2FC (Gene 27113): 2.072
- CIDEB log2FC (Gene 27141): -0.033
- GLS2 log2FC (Gene 27165): 0.410
- TNFRSF21 log2FC (Gene 27242): -1.071
- PDCD4 log2FC (Gene 27250): 1.703
- KLHL20 log2FC (Gene 27252): 0.115
- CECR2 log2FC (Gene 27443): -0.150
- DBNL log2FC (Gene 28988): -0.248
- HIPK2 log2FC (Gene 28996): -0.140
- SAP30BP log2FC (Gene 29115): -0.468
- LGALS13 log2FC (Gene 29124): -0.059
- CARD10 log2FC (Gene 29775): -0.449
- SENP1 log2FC (Gene 29843): 0.227
- TFPT log2FC (Gene 29844): -0.472
- PNMA3 log2FC (Gene 29944): 0.668
- UBQLN1 log2FC (Gene 29979): -0.069
- ERO1L log2FC (Gene 30001): 0.078
- SH3KBP1 log2FC (Gene 30011): 0.268
- KCNIP3 log2FC (Gene 30818): 0.232
- RRM2B log2FC (Gene 50484): 0.526
- G0S2 log2FC (Gene 50486): -0.054
- NOX4 log2FC (Gene 50507): 0.041
- CHST11 log2FC (Gene 50515): -0.946
- ARHGEF4 log2FC (Gene 50649): 0.008
- ARHGEF3 log2FC (Gene 50650): 0.506
- GLRX2 log2FC (Gene 51022): -0.261
- RPS27L log2FC (Gene 51065): 0.277
- APIP log2FC (Gene 51074): 0.039
- NDUFA13 log2FC (Gene 51079): -0.041
- GAL log2FC (Gene 51083): -0.333
- SH3GLB1 log2FC (Gene 51100): 0.561
- APH1A log2FC (Gene 51107): -0.371
- UTP11L log2FC (Gene 51118): -0.906
- IER3IP1 log2FC (Gene 51124): 0.357
- ANGPTL4 log2FC (Gene 51129): -0.819
- ING4 log2FC (Gene 51147): 1.595
- LEF1 log2FC (Gene 51176): -0.888
- BFAR log2FC (Gene 51283): 0.201
- PLAC8 log2FC (Gene 51316): -0.057
- TNFRSF12A log2FC (Gene 51330): -0.619
- ANGPT4 log2FC (Gene 51378): 0.049
- DDX41 log2FC (Gene 51428): -0.065
- GULP1 log2FC (Gene 51454): 1.663
- TRIAP1 log2FC (Gene 51499): -0.858
- ZC3HC1 log2FC (Gene 51530): 0.156
- PIAS4 log2FC (Gene 51588): -0.121
- PIGT log2FC (Gene 51604): 0.362
- TAF9B log2FC (Gene 51616): 0.327
- PTRH2 log2FC (Gene 51651): -0.374
- WWOX log2FC (Gene 51741): -0.808
- SIX4 log2FC (Gene 51804): 0.497
- IL20RA log2FC (Gene 53832): 0.039
- CYCS log2FC (Gene 54205): -0.602
- WNT4 log2FC (Gene 54361): -0.419
- DNAJC10 log2FC (Gene 54431): 0.610
- ZFAND6 log2FC (Gene 54469): 0.333
- ADAMTSL4 log2FC (Gene 54507): -0.373
- DDIT4 log2FC (Gene 54541): -1.201
- ING3 log2FC (Gene 54556): 0.724
- RRN3 log2FC (Gene 54700): -0.333
- AHI1 log2FC (Gene 54806): 0.380
- QRICH1 log2FC (Gene 54870): 0.076
- TMEM161A log2FC (Gene 54929): -0.337
- PHIP log2FC (Gene 55023): 1.071
- USP47 log2FC (Gene 55031): 0.614
- OXR1 log2FC (Gene 55074): 0.376
- UACA log2FC (Gene 55075): 0.829
- IFT57 log2FC (Gene 55081): 0.433
- XKR8 log2FC (Gene 55113): 0.252
- SHQ1 log2FC (Gene 55164): -0.188
- FAIM log2FC (Gene 55179): 0.119
- MAP1S log2FC (Gene 55201): -0.149
- ATAD3A log2FC (Gene 55210): -0.126
- STEAP3 log2FC (Gene 55240): -0.441
- RHOT1 log2FC (Gene 55288): 0.535
- RFK log2FC (Gene 55312): 0.631
- PARL log2FC (Gene 55486): -0.181
- TNFRSF19 log2FC (Gene 55504): -0.091
- CCAR1 log2FC (Gene 55749): 0.552
- PCID2 log2FC (Gene 55795): 0.323
- RNF130 log2FC (Gene 55819): 0.00747
- EAF2 log2FC (Gene 55840): 0.144
- PSENEN log2FC (Gene 55851): -0.013
- BCAP29 log2FC (Gene 55973): 0.083
- TEX11 log2FC (Gene 56159): 0.000672
- CTNNBL1 log2FC (Gene 56259): -0.138
- DIABLO log2FC (Gene 56616): -0.156
- ASAH2 log2FC (Gene 56624): -0.210
- TRIM39 log2FC (Gene 56658): -0.128
- BARHL1 log2FC (Gene 56751): -0.298
- FMN2 log2FC (Gene 56776): 0.00262
- SPHK2 log2FC (Gene 56848): -0.341
- C8orf4 log2FC (Gene 56892): 0.00123
- MEIS3 log2FC (Gene 56917): -0.122
- DUSP22 log2FC (Gene 56940): 0.209
- CIAPIN1 log2FC (Gene 57019): -0.420
- PCBP4 log2FC (Gene 57060): -0.275
- AVEN log2FC (Gene 57099): -0.638
- CAMK1D log2FC (Gene 57118): -0.189
- RTN4 log2FC (Gene 57142): -0.088
- PAK7 log2FC (Gene 57144): 0.451
- BIRC6 log2FC (Gene 57448): 0.144
- TAOK1 log2FC (Gene 57551): 0.399
- SEMA6A log2FC (Gene 57556): 0.047
- SH3RF1 log2FC (Gene 57630): -0.495
- USP28 log2FC (Gene 57646): 0.030
- GPAM log2FC (Gene 57678): -0.052
- CHD8 log2FC (Gene 57680): -0.161
- TRIB3 log2FC (Gene 57761): 0.076
- NGB log2FC (Gene 58157): -0.260
- RBM25 log2FC (Gene 58517): 0.334
- SAV1 log2FC (Gene 60485): 0.586
- PROK2 log2FC (Gene 60675): -0.058
- ELMO2 log2FC (Gene 63916): 0.585
- CIDEC log2FC (Gene 63924): 0.292
- FIGNL1 log2FC (Gene 63979): -0.235
- PERP log2FC (Gene 64065): 0.731
- MOAP1 log2FC (Gene 64112): 0.507
- RRAGC log2FC (Gene 64121): 1.556
- IFIH1 log2FC (Gene 64135): 0.872
- ZMAT3 log2FC (Gene 64393): -0.151
- ATG3 log2FC (Gene 64422): 0.194
- SUDS3 log2FC (Gene 64426): -0.027
- MICAL1 log2FC (Gene 64780): -0.125
- PLEKHG2 log2FC (Gene 64857): -0.516
